{
  "source": "patent US20190070174A1",
  "about": "“METHODS OF TREATING NEURODEGENERATIVE DISEASES” (priority 2016, published 2019)",
  "key": {"[1]": {"test_system": "ATXN3Q81.Luc fusion protein", "assay": "Confirmation dose-response, ATXN3 levels by immunoblotting", "assay_type": "cell-based, human", "settings": "293.ATXN3Q81Luc cells", "from_the_text": "Full-length ATXN3 (Accession number ABS29269) carrying either a normal or an expanded polyQ tract (Q26 or Q81) was subcloned in the vector pcDNA3.1 FLAG.firefly Luciferase. The mammalian expression plasmids pcDNA.FLAG.ATXN3Q26.Luc and pcDNA.FLAG.ATXN3Q81.Luc were confirmed by sequencing and shown to express N-terminal FLAG-tagged ATXN3Q26 or ATXN3Q81 fused with firefly Luciferase (Luc), respectively. These neomycin-resistant plasmids were transfected into HEK293 cells using Lipofectamine LTX (Invitrogen) during four hours, after which medium was replaced by growth medium (DMEM/10% fetal bovine serum (FBS)/1% penicillin/streptomycin (PS)). […] After one month of passage in selection medium, stably transfected clones for each cell line (293.ATXN3Q26Luc and 293.ATXN3Q81Luc) were pooled and frozen in liquid nitrogen. Stably transfected cell lines were maintained in selection medium except during treatment with specific compounds that were diluted in growth medium.\nProtein lysates from cell cultures, mouse brain slices or mouse brains were obtained by lysis in RIPA buffer containing protease inhibitors (Complete, Roche Diagnostics), followed by sonication and centrifugation. The supernatants (soluble protein fractions) were collected, total protein concentration was determined using the BCA method (Pierce) and then stored at −80° C. Total proteins (50 μg from cell and slice cultures or 75 μg from brain regions of mice) were resolved in 10% SDS-PAGE gels, and corresponding PVDF membranes were incubated overnight at 4° C. with primary antibodies: mouse anti-ATXN3 (1H9) (1:2000; MAB5360, Millipore), goat anti-Luciferase (1:500; G7451, Promega), mouse anti-FLAG (M5) (1:500; IB13091, Sigma), rabbit anti-LC3 (1:500; PM036, MBL International Corporation), mouse anti-HSP90β (1:1000; ADI-SPA842, Enzo Life Sciences), rabbit anti-HSP90α (1:1000; ab2928, Abcam), mouse anti-HSP70 (1:500; SPA810, Enzo Life Sciences), rabbit anti-HSP40 (1:1000; #4868, Cell Signaling), rabbit anti-HSP25 (1:1000; ADI-SPA801, Enzo Life Sciences), rabbit anti-HSF1 (1:1000, ADI-SPA-901, Enzo Life Sciences), rabbit anti-ubiquitin (1:1000, Z 0458, Dako), rabbit anti-RAD23A (1:5000; TA307264, Origene), rabbit anti-RAD23B (1:2000; A302-306A, Bethyl Labs), rabbit anti-α-Tubulin (11H10) (1:10000; #2125, Cell Signaling), and mouse anti-GAPDH (1:1000; MAB374, Millipore). Pellets corresponding to insoluble protein fractions were resuspended in 100 μL of Laemmli buffer 2× and boiled for 10 min. Insoluble proteins were then quantified, and 100 μg were loaded in a filter trap assay apparatus and transferred to a nitrocellulose membrane (0.45 μm pore) that was incubated overnight with rabbit anti-MJD antibody (1:5000) at 4° C. Bound primary antibodies were visualized by incubation with a peroxidase-conjugated anti-mouse or anti-rabbit secondary antibody (1:10000; Jackson Immuno Research Laboratories) followed by treatment with the ECL-plus reagent (Western Lighting, PerkinElmer) and exposure to autoradiography films. Band intensity was quantified by densitometry using ImageJ."}, "MJD/SCA3 flies": {"test_system": "MJD/SCA3 flies", "assay": "Survival of MJD/SCA3 flies", "assay_type": "in vivo, Drosophila", "settings": "50 μM in food from eclosion", "procedure": "Drosophila stocks were reared on standard cornmeal media at 25° C. in diurnal environments with ˜60% humidity. […] Full-length human ATXN3 cDNA with 77 CAG was cloned into pWalium10-moe (Perrimon Lab, Harvard Medical School). Flies that carry ATXN3 in site attP2 or the empty vector control into the same site as the most isogenic control line were generated. Injections were done into y[1], w[*]; +; attP2 (landing site). […] Adult flies of the following genotypes, w[*]; sqh-Gal4/+; UAS-ataxin-3Q77/+ or w[*], sqh-Gal4/+; Empty-Vector-Control/+ were switched from standard media to instant media as soon as they eclosed from their pupal case (day 0), and thereafter maintained on instant media with vehicle compound. Media was switched every three days, and death was noted daily.\nAt least 200 flies in groups of 9 to 17 flies per treatment vial were monitored."}, "[2]": {"assay": "Pharmacokinetics after intraperitoneal injection", "assay_type": "in vivo, mouse", "settings": "15 mg/kg IP, mice"}, "ATXN3": {"test_system": "ATXN3", "assay": "Subchronic treatment of Q84 mice, anti-ATXN3 immunofluorescence of ventral pons", "assay_type": "in vivo, human", "procedure": "(§1) YACMJD84.2 transgenic mice were housed in cages with a maximum number of five animals and maintained in a standard 12-hour light/dark cycle with food and water ad libitum. Genotyping was performed using DNA isolated from tail biopsy at the time of weaning, and genotypes of all studied mice were confirmed using DNA extracted from tails collected post-mortem. […] Five hours after the final injection, mice were anesthetized with ketamine/xylazine and perfused transcardially with phosphate buffered saline (PBS) (for RNA and protein studies), and brains were immediately placed on dry ice and stored at −80° C.\nBrains from mice perfused with 4% PFA were post-fixed overnight at 4° C. in the same fixative, immersed in 30% sucrose/PBS, and sectioned on a sledge microtome (SM200R Leica Biosystems). […] Neuronal nuclear ATXN3 was quantified using ImageJ by quantifying ATXN3 fluorescence in DAPI and NeuN double-positive nuclei. Corrected total cell fluorescence (CTCF) was obtained by measuring ATXN3 fluorescence in 15 nuclei/image field/mouse and normalizing for nuclei area using the equation CTCF=fluorescence intensity−(nucleus area×mean fluorescence of background readings). ATXN3 positive puncta were quantified using ImageJ by assessing particle fluorescence (applying the triangle threshold) in the same image fields described above."}, "5HT2A transcripts": {"test_system": "5HT2A transcripts", "assay": "Subchronic treatment of Q84 mice, quantitative RT-PCR", "assay_type": "in vivo, mouse", "settings": "brainstem of Q84 mice", "procedure": "as §1\nReverse transcription of 1.5 μg of total RNA per sample was performed using the iScript cDNA synthesis kit (Bio-RAD). Human ATXN3 and mouse Atxn3, Drd2, 5HT1A, 5HT2A and Gapdh (housekeeping) transcript levels were accessed by quantitative real-time PCR. Relative gene expression was determined using the ΔΔCT method, normalizing for Gapdh mRNA levels."}},
  "data": [
    {"molecule": "O=C1CCc2ccc(OCCCCN3CCN(c4cccc(Cl)c4Cl)CC3)cc2N1", "note": "[aripiprazole]", "values": [
      {"measurement": "levels of ATXN3Q81.Luc fusion protein", "setting": "[1]", "result": "confirmed to decrease levels of ATXN3Q81.Luc fusion protein"},
      {"measurement": "increased mean survival compared with vehicle-treated flies", "setting": "MJD/SCA3 flies", "result": 1.3, "unit": "days"},
      {"measurement": "mean survival", "setting": "MJD/SCA3 flies; vehicle-treated 7.7±0.343", "result": "9.0 ± 0.367", "unit": "days"},
      {"measurement": "time of maximal concentration in the brain post-injection", "setting": "[2]", "result": 30, "unit": "min"},
      {"measurement": "ATXN3 nuclear levels vs vehicle", "setting": "ATXN3; neuronal nuclei of ventral pons", "result": "no differences"},
      {"measurement": "total ATXN3 fluorescence vs control mice", "setting": "ATXN3; pons", "result": "non-significant trend towards a decrease"},
      {"measurement": "5HT2A transcripts", "setting": "5HT2A transcripts", "result": "increasing"}
    ]}
  ]
}
